Experimental data reported in PMC9007139 (Journal of medicinal chemistry, 2020).

How the values were obtained:
[1] = Caco-2 permeability; type: in vitro ADME
[2] = In vivo pharmacokinetics, dog; design: species or system Male beagle dogs; conditions: male, beagle, plasma, iv, 0.3 mg/kg
[3] = In vivo pharmacokinetics, rat; design: species or system Male Sprague-Dawley rats; conditions: male, Sprague-Dawley, plasma, iv, 0.3 mg/kg
[4] = in vitro; conditions: rat, microsomes, pH 7.4

Compound | efflux in Caco-2 assay [1] | clearance [2] [L/h/kg] | clearance [3] [L/h/kg] | CLint scaled at 1 uM [4] [L/h/kg]
CNC(=O)c1cn(C[C@H](F)CCc2ccc(NC(=O)Cc3cc(OC4CC(F)(F)C4)cc(C)n3)nn2)nn1 [Compound 27, (R)-1-(4-(6-(2-(4-(3,3-difluorocyclobutoxy)-6-methylpyridin-2-yl)acetamido)pyridazin-3-yl)-2-fluorobutyl)-N-methyl-1H-1,2,3-triazole-4-carboxamide] | mild efflux | 0.036 | 0.018 | 
CNC(=O)c1cn(C[C@H](F)CCc2ccc(NC(=O)Cc3cc(OC4CC(F)(F)C4)ccn3)nn2)nn1 [Compound 24] |  | 0.18 | 0.18 | 
CNC(=O)c1cn(C[C@H](F)CCc2ccc(NC(=O)Cc3cc(-c4cccc(OC(F)(F)F)c4)ccn3)nn2)nn1 [Compound 25] |  | 0.174 | 0.48 | 1.32
CNC(=O)c1cn(C[C@H](F)CCc2ccc(NC(=O)Cc3cc(C(F)(F)F)cc(C)n3)nn2)nn1 [Compound 26] |  | 0.054 | 0.06 | 
